Laboratory results: patent US12187721B2, “Protein tyrosine phosphatase inhibitors” (Array BioPharma Inc., priority 2018, dated 2025)
pIC50: −log10 of the molar value.

The compounds below were run against T1, full-length SHP2 (His6-tagged SHP2(2-527)) (Homo sapiens, UniProt Q06124) (assay: SHP2 Enzymatic Assay (fluorescence intensity kinetic assay, DiFMUP hydrolysis)).
T1 construct: His6-tagged SHP2(2-527); His6; made in house; host or cells: E. coli
Type: biochemical
Procedure: A fluorescence intensity kinetic assay was configured for full-length SHP2 that monitors the amount of 6,8-difluoro-7-hydroxy-4-methylcoumarin (“DiFMU”) formed upon hydrolysis of 6,8-difluoro-4-methylumbelliferyl phosphate (“DiFMUP”) by SHP2. Assay mixtures consisted of 25 mM K^+HEPES, pH 7.4, 0.01% Triton X-100, 1 mM DTT, 50 mM KCl, 100 μg/mL bovine γ-globulin, 50 μM DiFMUP, 1 μM SHP2 activating peptide (LN(pY)IDLDLV(dPEG8)LST(pY)ASINFQK-amide), 1 nM full-length SHP2 (His6-tagged SHP2(2-527), recombinantly expressed in E. coli and purified in-house) and 2% dimethylsulfoxide (“DMSO”) (from compound). […] The assay was run in 384-well, polystyrene, low-volume, non-treated, black microtiter plates (Costar 4511) in a final volume of 20 μL. Low control wells lacked enzyme. The assays were initiated by the addition of a mixture of SHP2 and the activating peptide, and following a 15 second mix on an orbital shaker, were read in kinetic mode for 15 minutes (30 seconds/cycle) at ambient temperature on a PerkinElmer EnVision microplate reader (λEx=355 nm, λEm=460 nm). Initial velocities (slopes of the tangents at t=0) were estimated from exponential fits to the slightly nonlinear progress curves and then were converted to percent of control (“POC”) using the following equation:
[formula] • Where: Xmax Average Uninhibited Controls • Xmin Average Background A 4-parameter logistic model was the fit to the POC data for each compound. From that fit, the IC50 was estimated and is defined as the concentration of compound at which the curve crosses 50 POC.
The reported IC50 in Table 1 may be from a single assay or the mean of multiple assays.

T1 sequence (Q06124 2-527): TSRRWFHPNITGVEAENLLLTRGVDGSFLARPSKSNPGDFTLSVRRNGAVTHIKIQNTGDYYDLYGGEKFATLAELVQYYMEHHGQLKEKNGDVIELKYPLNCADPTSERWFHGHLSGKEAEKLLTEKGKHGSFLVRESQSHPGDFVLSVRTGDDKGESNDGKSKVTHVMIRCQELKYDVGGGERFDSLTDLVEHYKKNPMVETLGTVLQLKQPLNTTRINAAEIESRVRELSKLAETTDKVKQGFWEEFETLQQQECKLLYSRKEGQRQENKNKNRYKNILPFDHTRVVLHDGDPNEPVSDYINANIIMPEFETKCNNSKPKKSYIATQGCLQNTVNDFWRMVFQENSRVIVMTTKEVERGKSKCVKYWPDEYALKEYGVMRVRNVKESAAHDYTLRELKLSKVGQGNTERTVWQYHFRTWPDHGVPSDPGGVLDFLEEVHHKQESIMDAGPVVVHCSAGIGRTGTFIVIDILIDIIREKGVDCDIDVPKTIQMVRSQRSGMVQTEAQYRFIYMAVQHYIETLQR

| SMILES | pIC50 |
| --- | --- |
| Cc1c(Sc2ccc3nc(N4CCC5(CC4)CO[C@@H](C)[C@H]5N)cnc3n2)ccnc1N [Example 72, (3S,4S)-8-(6-((2-amino-3-methylpyridin-4-yl)thio)pyrido[2,3-b]pyrazin-2-yl)-3-methyl-2-oxa-8-azaspiro[4,5]decan-4-amine] | 6.83 |
| CC1(N)CCCN(c2cnc3nc(Sc4ccnc(N)c4Cl)ccc3n2)CC1 (stereo not drawn) [Example 73, 1-(6-((2-amino-3-chloropyridin-4-yl)thio)pyrido[2,3-b]pyrazin-2-yl)-4-methylazepan-4-amine] | 7.46 |
| C[C@@H]1OCC2(CCN(c3cnc4nc(Sc5ccnc(N6CCS(=O)(=O)CC6)c5Cl)ccc4n3)CC2)[C@@H]1N [Example 77, 4-(4-((2-((3S,4S)-4-amino-3-methyl-2-oxa-8-azaspiro[4.5]decan-8-yl)pyrido[2,3-b]pyrazin-6-yl)thio)-3-chloropyridin-2-yl)thiomorpholine 1,1-dioxide] | 6.46 |
| C[C@@H]1OCC2(CCN(c3cnc4nc(Sc5ccnc(N6CCOCC6)c5Cl)ccc4n3)CC2)[C@@H]1N [Example 79, (3S,4S)-8-(6-((3-chloro-2-morpholinopyridin-4-yl)thio)pyrido[2,3-b]pyrazin-2-yl)-3-methyl-2-oxa-8-azaspiro[4,5]decan-4-amine] | 6.37 |
| CC(=O)N1CCN(c2nccc(Sc3ccc4nc(N5CCC6(CC5)CO[C@@H](C)[C@H]6N)cnc4n3)c2Cl)CC1 [Example 80, 1-(4-(4-((2-((3S,4S)-4-amino-3-methyl-2-oxa-8-azaspiro[4.5]decan-8-yl)pyrido[2,3-b]pyrazin-6-yl)thio)-3-chloropyridin-2-yl)piperazin-1-yl)ethan-1-one] | 6.13 |
| Nc1nccc(Sc2ccc3nc(N4CCC(N)CC4)cnc3n2)c1Cl [Example 81, 4-((2-(4-aminopiperidin-1-yl)pyrido[2,3-b]pyrazin-6-yl)thio)-3-chloropyridin-2-amine] | 7.14 |
| Nc1nccc(Sc2ccc3nc(N4CC[C@@H](N)[C@H](O)C4)cnc3n2)c1Cl [Example 82, (3R,4R)-4-amino-1-(6-((2-amino-3-chloropyridin-4-yl)thio)pyrido[2,3-b]pyrazin-2-yl)piperidin-3-ol] | 7.19 |
| Nc1nccc(Sc2ccc3nc(N4CCC5(CCCC5N)C4)cnc3n2)c1Cl (stereo not drawn) [Example 83, 2-(6-((2-amino-3-chloropyridin-4-yl)thio)pyrido[2,3-b]pyrazin-2-yl)-2-azaspiro[4.4]nonan-6-amine] | 6.76 |
| Nc1nccc(Sc2ccc3nc(N4CC[C@@H](N)[C@@H](O)C4)cnc3n2)c1Cl [Example 84, (3S,4R)-4-amino-1-(6-((2-amino-3-chloropyridin-4-yl)thio)pyrido[2,3-b]pyrazin-2-yl)piperidin-3-ol] | 6.99 |
| NCC1CN(c2cnc3nc(Sc4ccnc(N)c4Cl)ccc3n2)C1 [Example 85, 4-((2-(3-(aminomethyl)azetidin-1-yl)pyrido[2,3-b]pyrazin-6-yl)thio)-3-chloropyridin-2-amine] | 6.32 |
| NCC1(CO)CCN(c2cnc3nc(Sc4ccnc(N)c4Cl)ccc3n2)CC1 [Example 86, (1-(6-((2-amino-3-chloropyridin-4-yl)thio)pyrido[2,3-b]pyrazin-2-yl)-4-(aminomethyl)piperidin-4-yl)methanol] | 7.28 |
| C[C@@H]1OCC2(CCN(c3cnc4nc(Sc5ccnc(N6CC[C@H](CO)C6)c5Cl)ccc4n3)CC2)[C@@H]1N [Example 87, ((S)-1-(4-((2-((3S,4S)-4-amino-3-methyl-2-oxa-8-azaspiro[4.5]decan-8-yl)pyrido[2,3-b]pyrazin-6-yl)thio)-3-chloropyridin-2-yl)pyrrolidin-3-yl)methanol] | 6.90 |
| C[C@@H]1OCC2(CCN(c3cnc4nc(Sc5ccnc(N6CC[C@H](O)C6)c5Cl)ccc4n3)CC2)[C@@H]1N [Example 88, (S)-1-(4-((2-((3S,4S)-4-amino-3-methyl-2-oxa-8-azaspiro[4.5]decan-8-yl)pyrido[2,3-b]pyrazin-6-yl)thio)-3-chloropyridin-2-yl)pyrrolidin-3-ol] | 6.98 |
| C[C@@H]1OCC2(CCN(c3cnc4nc(Sc5ccnc(N6CCC(O)C6)c5Cl)ccc4n3)CC2)[C@@H]1N (stereo partly drawn) [Example 89, 1-(4-((2-((3S,4S)-4-amino-3-methyl-2-oxa-8-azaspiro[4.5]decan-8-yl)pyrido[2,3-b]pyrazin-6-yl)thio)-3-chloropyridin-2-yl)pyrrolidin-3-ol] | 7.10 |
| C[C@@H]1OCC2(CCN(c3cnc4nc(Sc5ccnc(CO)c5Cl)ccc4n3)CC2)[C@@H]1N [Example 90, (4-((2-((3S,4S)-4-amino-3-methyl-2-oxa-8-azaspiro[4.5]decan-8-yl)pyrido[2,3-b]pyrazin-6-yl)thio)-3-chloropyridin-2-yl)methanol] | 6.74 |
| CN(C)C1C[C@@H]2CC[C@@H](C1)N2c1cnc2nc(Sc3ccnc(N)c3Cl)ccc2n1 (stereo partly drawn) [Example 92, (1R,3s,5S)-8-(6-((2-amino-3-chloropyridin-4-yl)thio)pyrido[2,3-b]pyrazin-2-yl)-N,N-dimethyl-8-azabicyclo[3.2.1]octan-3-amine] | 7.18 |
| CNC1C[C@@H]2CC[C@@H](C1)N2c1cnc2nc(Sc3ccnc(N)c3Cl)ccc2n1 (stereo partly drawn) [Example 93, (1S,3s,5S)-8-(6-((2-amino-3-chloropyridin-4-yl)thio)pyrido[2,3-b]pyrazin-2-yl)-N-methyl-8-azabicyclo[3.2.1]octan-3-amine] | 7.31 |
| Cc1nccc(Sc2ccc3nc(N4CCC(C)(N)CC4)cnc3n2)c1Cl [Example 94, 1-(6-((3-chloro-2-methylpyridin-4-yl)thio)pyrido[2,3-b]pyrazin-2-yl)-4-methylpiperidin-4-amine] | 7.31 |
| CC1(N)CCN(c2cnc3nc(Sc4cccnc4N)ccc3n2)CC1 [Example 95, 3-((2-(4-amino-4-methylpiperidin-1-yl)pyrido[2,3-b]pyrazin-6-yl)thio)pyridin-2-amine] | 5.33 |
| Cc1nc(Cl)ccc1Sc1ccc2nc(N3CCC(C)(N)CC3)cnc2n1 [Example 96, 1-(6-((6-chloro-2-methylpyridin-3-yl)thio)pyrido[2,3-b]pyrazin-2-yl)-4-methylpiperidin-4-amine] | 6.30 |
| CC1(N)CCN(c2cnc3nc(Sc4ccc(N)nc4Cl)ccc3n2)CC1 [Example 97, 5-((2-(4-amino-4-methylpiperidin-1-yl)pyrido[2,3-b]pyrazin-6-yl)thio)-6-chloropyridin-2-amine] | 6.75 |
| Cc1ccc(Sc2ccc3nc(N4CCC(C)(N)CC4)cnc3n2)c(Cl)n1 [Example 98, 1-(6-((2-chloro-6-methylpyridin-3-yl)thio)pyrido[2,3-b]pyrazin-2-yl)-4-methylpiperidin-4-amine] | 6.77 |
| Nc1nccc(Sc2ccc3nc(N4CC5CCCC(N)C5C4)cnc3n2)c1Cl (stereo not drawn) [Example 99, 2-(6-((2-amino-3-chloropyridin-4-yl)thio)pyrido[2,3-b]pyrazin-2-yl)octahydro-1H-isoindol-4-amine] | 6.80 |
| Nc1nccc(Sc2ccc3nc(N4CC5CCC(N)C5C4)cnc3n2)c1Cl (stereo not drawn) [Example 100, 2-(6-((2-amino-3-chloropyridin-4-yl)thio)pyrido[2,3-b]pyrazin-2-yl)octahydrocyclopenta[c]pyrrol-4-amine] | 6.92 |
| NCC1CC2CCCC(C1)N2c1cnc2nc(Sc3ccnc(N)c3Cl)ccc2n1 (stereo not drawn) [Example 101, 4-((2-(3-(aminomethyl)-9-azabicyclo[3.3.1]nonan-9-yl)pyrido[2,3-b]pyrazin-6-yl)thio)-3-chloropyridin-2-amine] | 7.25 |
| NCC1CC2CCC(C1)N2c1cnc2nc(Sc3ccnc(N)c3Cl)ccc2n1 (stereo not drawn) [Example 102, 4-((2-(3-(aminomethyl)-8-azabicyclo[3.2.1]octan-8-yl)pyrido[2,3-b]pyrazin-6-yl)thio)-3-chloropyridin-2-amine] | 7.36 |
| Nc1nccc(Sc2ccc3nc(N4CCC5NCC5C4)cnc3n2)c1Cl (stereo not drawn) [Example 103, 4-((2-(3,7-diazabicyclo[4.2.0]octan-3-yl)pyrido[2,3-b]pyrazin-6-yl)thio)-3-chloropyridin-2-amine] | 7.10 |
| Nc1nccc(Sc2ccc3nc(N4CCC(N)(C(F)(F)F)CC4)cnc3n2)c1Cl [Example 104, 4-((2-(4-amino-4-(trifluoromethyl)piperidin-1-yl)pyrido[2,3-b]pyrazin-6-yl)thio)-3-chloropyridin-2-amine] | 5.48 |
| C[C@@H]1OCC2(CCN(c3cnc4nc(Sc5ccc(N)nc5Cl)ccc4n3)CC2)[C@@H]1N [Example 105, (3S,4S)-8-(6-((6-amino-2-chloropyridin-3-yl)thio)pyrido[2,3-b]pyrazin-2-yl)-3-methyl-2-oxa-8-azaspiro[4.5]decan-4-amine] | 7.09 |
| C[C@@H]1OCC2(CCN(c3cnc4nc(Sc5ccnc(N6CC[C@@H](CO)C6)c5Cl)ccc4n3)CC2)[C@@H]1N [Example 106, ((R)-1-(4-((2-((3S,4S)-4-amino-3-methyl-2-oxa-8-azaspiro[4.5]decan-8-yl)pyrido[2,3-b]pyrazin-6-yl)thio)-3-chloropyridin-2-yl)pyrrolidin-3-yl)methanol] | 7.00 |
